Data: patent US8246944B2, “Immunotherapeutic agent for the combined treatment of tuberculosis in association with other drugs” (Archivel Farma, S.L., priority 2003, dated 2012)

Legend:
[1] = tested on: virulent strain of Mycobacterium tuberculosis; assay: […]; bacillary concentration in left lung and spleen; type: in vivo, BALB/c mice; conditions: Control: isoniazid only 25 mg/kg per day, 5 days per week, 6 weeks (weeks 9-15); killed week 15
[2] = tested on: virulent strain of Mycobacterium tuberculosis; assay: as above; type: in vivo, C57BL/6 mice; conditions: Control: isoniazid alone 25 mg/kg per day, 5 days per week, weeks 9-17

In the case of NNC(=O)c1ccncc1 [isoniazid], the “Bacillary concentration, Lung” value [1] is reported as 7.5 ± 2.89 UFC/mL, the “Bacillary concentration, Spleen” value [1] is reported as 0.75 ± 0.33 UFC/mL and the “Bacillary concentration, lungs, Week 15” value ([2]; sacrificed week 15) is reported as 2.34 ± 0.24 log10 UFC/mL. For the same molecule, the “Bacillary concentration, spleen, Week 15” value ([2]; sacrificed week 15) was 1.47 ± 0.44 log10 UFC/mL, the “Bacillary concentration, lungs, Week 28” value ([2]; sacrificed week 28) was 3.86 ± 0.41 log10 UFC/mL and the “Bacillary concentration, spleen, Week 28” value ([2]; sacrificed week 28) was 3.84 ± 0.48 log10 UFC/mL.
